Data as given in patent US20050239780A1, “Tetrahydropyran derivative” (priority 2002, published 2005).
Where two headings read alike, the source gives them in different places.

Columns and labels:
[1] = tested on: plasma lipid in high-cholesterol feed-loaded rats; test: Pharmacological test on high-cholesterol feed-loaded rats; assay type: in vivo; conditions: high-cholesterol feed-loaded male SD rats, oral once a day for 7 days, relative to control group; for ED50: Rattus norvegicus, 168 h, read-out: ED50 non-HDL cholesterol lowering effect
Protocol: 3. Pharmacological Test on High-Cholesterol Feed-Loaded Rats
The influence of test compounds on plasma lipid in vivo was investigated with high-cholesterol feed-loaded rats. A 0.5% methyl cellulose suspension containing a test compound was forcedly orally administered to male SD rats loaded with high-cholesterol feed (1.5% cholesterol, 10% coconut oil, 0.5% cholic acid), once a day for continuous 7 days. After the final administration, the rats were fed with nothing, and after 6 hours, their blood was collected under anesthetization with diethyl ether. Using an automatic analyzer, Hitachi's Model 7250, the total cholesterol, HDL cholesterol and triglyceride in plasma were measured. Non-HDL cholesterol was obtained by subtracting HDL cholesterol from total cholesterol. The non-HDL cholesterol lowering effect of the test compound, relative to the control group, was represented by ED50.

[2] = tested on: plasma lipid in KK-Ay mice; test: Pharmacological test in KK-Ay mice; assay type: in vivo, male KK-Ay mice; conditions: oral once a day for 7 days, relative to control group
Protocol: The influence of test compounds on plasma lipid in vivo was investigated with KK-Ay mice. A 0.5% methyl cellulose suspension containing a test compound was forcedly orally administered to male KK-Ay mice once a day for continuos 7 days. After the final administration, the mice were fed with nothing, and after 6 hours, their blood was collected under anesthetization with diethyl ether. Using the automatic analyzer, Hitachi's Model 7250, the total cholesterol, HDL cholesterol and triglyceride in plasma were measured. Non-HDL cholesterol was obtained by subtracting HDL cholesterol from total cholesterol. The plasma lipid lowering effect of the test compound was expressed in percentage relative to the control group.

[3] = tested on: apo B-related lipoprotein secretion in Hep G2 cells; test: Measurement of apo B-related lipoprotein secretion in liver cells (Hep G2, enzyme immunoassay); assay type: cell-based, human; conditions: culture supernatant
Protocol: 1. Measurement of Apo B-Related Lipoprotein Secretion in Liver Cells
Hep G2 cells were cultured in a 96-well plate using a 10% fetal bovine serum-containing Dulbecco's modified Eagle's medium (to be referred to as “10% FBS-containing DMEM” hereinafter). The medium was exchanged with a 10% FBS-containing DMEM that contained a DMSO solution of the test compound (DMSO final concentration 0.1%), and the cells were further incubated therein for 18 hours to obtain the culture supernatant. The culture supernatant obtained from a 10% FBS-containing DMEM that contained DMSO alone (final concentration 0.1%) was used as the control. The apo B-related lipoprotein produced in the culture supernatant was determined through an enzyme immunoassay in the manner mentioned below.
A solution of anti-human apolipoprotein B monoclonal antibody (4 μg/ml) was dispensed in 100 μl portions into a 96-well immunoassay plate and kept at 4° C. for 18 hours. Each well was washed three times with a phosphate buffer to which had been added 0.1% Tween 20 (to be referred to as “PBS-T” hereinafter), and 300 μl of a 4-fold diluted immune blocker “Block Ace” was added thereto and kept at 37° C. for 1 hour. The aforementioned culture supernatant was added to it, and kept at 37° C. for 3 hours. This was washed three times with PBS-T, and then 100 μl of a solution of caprine anti-human apolipoprotein B polyclonal antibody (2,000-fold dilution) was added to it and kept at 37° C. for 1 hour. This was washed three times with PBS-T, and then 100 μl of a solution of alkaline phosphatase-labeled anti-caprine IgG antibody (2,000-fold dilution) was added thereto and kept at 37° C. for 1 hour. This was washed four times with PBS-T, once with PBS and then with a carbonate buffer (pH 9.5), and 100 μl of a solution of an alkaline phosphatase substrate was added thereto and kept at room temperature for 5 minutes. A 50 μl portion of 0.2 M sodium hydroxide was added to it to stop the reaction, and the absorbance at 405 nm was measured. From the calibration curve based on a standard, human low-density lipoprotein, the absolute amount of apo B-related lipoprotein was obtained.

[4] = tested on: VLDL secretion in vivo in rats; test: Measurement of blood cholesterol and triglyceride in rats (VLDL secretion, Triton WR-1339); conditions: male SD rats, oral, Triton WR-1339 400 mg/kg i.v. after 1 hour, blood after 4 hours; for ED50: Rattus norvegicus
Protocol: 2. Measurement of Blood Cholesterol and Triglyceride in Rats
The influence of test compounds on VLDL secretion in vivo in rats was investigated. A 0.5% methyl cellulose suspension containing a test compound was orally administered to male SD rats. After 1 hour, a physiological saline solution of Triton WR-1339 (corresponding to 400 mg/kg) was injected through the caudal vein. After 4 hours, their blood was collected under anesthetization with diethyl ether. The total cholesterol and triglyceride in blood were measured by the use of “Cholesterol C Test Wako” and “Triglyceride G Test Wako” (both from Wako Pure Chemical Industries), respectively. The rats orally administered with the 0.5% methyl cellulose solution and then intravenously injected with physiological saline were used as a normal group, and those orally administered with the 0.5% methyl cellulose solution and then intravenously injected with physiological saline of Triton WR-1339 were used as a control group. The difference in the total cholesterol (TC) or triglyceride (TG) in the serum between the control group and the normal group was defined as the amount of secretion per hour, and the lowering effect in the amount of secretion of the test compound was represented by ED50.

[5] = Homo sapiens, HepG2, 18 hours incubation
[6] = read-out: ED50 TC (total cholesterol secretion lowering effect)
[7] = read-out: ED50 TG (triglyceride secretion lowering effect)

Cc1nc2c(c(C)c1CCC(=O)O)c1ccccc1n2Cc1ccc([C@@H](C(=O)NCc2ccccc2)C2CCOCC2)cc1 [Example 19, (−)-3-(9-{4-[(S)-(benzylcarbamoyl)(tetrahydro-2H-pyran-4-yl)methyl]benzyl}-2,4-dimethyl-9H-pyrido[2,3-b]indol-3-yl)propanoic acid]
ED50 [1]: 0.059 mg/kg
Lowering rate TG ([2]; dose 3 mg/kg): 91%
Lowering rate non-HDL ([2]; dose 3 mg/kg): 95%
IC50 [3, 5]: 1.7 nM
ED50 [4, 6]: 0.17 mg/kg
ED50 [4, 7]: 0.24 mg/kg

CCCN1CCN(C(=O)[C@H](c2ccc(Cn3c4ccccc4c4c(C)c(CCC(=O)O)c(C)nc43)cc2)C2CCOCC2)CC1 [Example 18, (+)-3-(2,4-Dimethyl-9-{4-[(S)-2-oxo-2-(4-propylpiperazin-1-yl)-1-(tetrahydro-2H-pyran-4-yl)ethyl]benzyl}-9H-pyrido[2,3-b]indol-3-yl)propanoic acid]
ED50 [1]: 0.2 mg/kg
Lowering rate TG ([2]; dose 3 mg/kg): 87%
Lowering rate non-HDL ([2]; dose 3 mg/kg): 85%
IC50 [3, 5]: 3 nM
ED50 [4, 6]: 0.5 mg/kg
ED50 [4, 7]: 0.52 mg/kg

COCCCN1CCN(C(=O)[C@H](c2ccc(Cn3c4ccccc4c4c(C)c(CCC(=O)O)c(C)nc43)cc2)C2CCOCC2)CC1 [Example 56]
ED50 non-HDL cholesterol lowering effect [1]: 1.1 mg/kg
Lowering rate TG ([2]; dose 3 mg/kg): 41%
Lowering rate non-HDL ([2]; dose 3 mg/kg): 63%
IC50 ([3]; 18 hours incubation): 7.2 nM
ED50 TC (total cholesterol secretion lowering effect) [4]: 0.9 mg/kg
ED50 TG (triglyceride secretion lowering effect) [4]: 1.3 mg/kg

Cc1cc(C)c2c3ccccc3n(Cc3ccc([C@@H](C(=O)N[C@@H](CO)c4ccccc4)C4CCCC4)cc3)c2n1 [Implitapide, reference compound]
ED50 non-HDL cholesterol lowering effect [1]: 1.0 mg/kg
Lowering rate TG ([2]; dose 10 mg/kg): 15%
Lowering rate non-HDL ([2]; dose 10 mg/kg): 14%
ED50 TC (total cholesterol secretion lowering effect) [4]: 1.0 mg/kg
ED50 TG (triglyceride secretion lowering effect) [4]: 1.1 mg/kg

Cc1nc2c(c(C)c1CCC(=O)O)c1ccccc1n2Cc1ccc([C@@H](C(=O)NCc2cccc(F)c2)C2CCOCC2)cc1 [Example 117]
ED50 non-HDL cholesterol lowering effect [1]: 0.032 mg/kg
Lowering rate TG ([2]; dose 3 mg/kg): 98%
Lowering rate non-HDL ([2]; dose 3 mg/kg): 98%
IC50 ([3]; 18 hours incubation): 2.2 nM

Cc1nc2c(c(C)c1CCC(=O)O)c1cc(F)ccc1n2Cc1ccc([C@@H](C(=O)NCc2ccccc2)C2CCOCC2)cc1 [Example 23]
ED50 non-HDL cholesterol lowering effect [1]: 0.063 mg/kg
Lowering rate TG ([2]; dose 3 mg/kg): 96%
Lowering rate non-HDL ([2]; dose 3 mg/kg): 91%
ED50 TC (total cholesterol secretion lowering effect) [4]: 0.27 mg/kg
ED50 TG (triglyceride secretion lowering effect) [4]: 0.19 mg/kg

Cc1nc2c(c(C)c1CCC(=O)O)c1ccccc1n2Cc1ccc([C@@H](C(=O)N2CCN(C3CCC3)CC2)C2CCOCC2)cc1 [Example 57]
ED50 non-HDL cholesterol lowering effect [1]: 0.88 mg/kg
Lowering rate TG ([2]; dose 3 mg/kg): 89%
Lowering rate non-HDL ([2]; dose 3 mg/kg): 86%
IC50 ([3]; 18 hours incubation): 8 nM
ED50 TC (total cholesterol secretion lowering effect) [4]: 0.74 mg/kg
ED50 TG (triglyceride secretion lowering effect) [4]: 0.56 mg/kg

Cc1nc2c(c(C)c1CCC(=O)O)c1ccccc1n2Cc1ccc([C@@H](C(=O)N(C)C)C2CCOCC2)cc1 [Example 37, 3-(2,4-dimethyl-9-{4-[(S)-(dimethylcarbamoyl)(tetrahydro-2H-pyran-4-yl)methyl]benzyl}-9H-pyrido[2,3-b]indol-3-yl)propanoic acid]
Lowering rate TG ([2]; dose 3 mg/kg): 57%
Lowering rate non-HDL ([2]; dose 3 mg/kg): 62%
IC50 [3, 5]: 29 nM
ED50 [4, 6]: 0.71 mg/kg
ED50 [4, 7]: 0.71 mg/kg

CCCCCN1CCN(C(=O)[C@H](c2ccc(Cn3c4ccccc4c4c(C)c(CCC(=O)O)c(C)nc43)cc2)C2CCOCC2)CC1 [Example 50]
ED50 non-HDL cholesterol lowering effect [1]: 0.19 mg/kg
Lowering rate TG ([2]; dose 3 mg/kg): 94%
Lowering rate non-HDL ([2]; dose 3 mg/kg): 90%
IC50 ([3]; 18 hours incubation): 3.2 nM
ED50 TC (total cholesterol secretion lowering effect) [4]: 0.48 mg/kg
ED50 TG (triglyceride secretion lowering effect) [4]: 0.41 mg/kg

Cc1nc2c(c(C)c1CCC(=O)O)c1ccccc1n2Cc1ccc([C@@H](C(=O)N2CCN(c3ccccn3)CC2)C2CCOCC2)cc1 [Example 17, (−)-3-(2,4-Dimethyl-9-{4-[(S)-2-oxo-2-(4-pyridin-2-ylpiperazin-1-yl)-1-(tetrahydro-2H-pyran-4-yl)ethyl]benzyl}-9H-pyrido[2,3-b]indol-3-yl)propanoic acid]
ED50 [1]: 0.14 mg/kg
Lowering rate TG ([2]; dose 3 mg/kg): 86%
Lowering rate non-HDL ([2]; dose 3 mg/kg): 85%
IC50 [3, 5]: 4.8 nM
ED50 [4, 6]: 0.74 mg/kg
ED50 [4, 7]: 0.39 mg/kg

Cc1nc2c(c(C)c1CCC(=O)O)c1ccccc1n2Cc1ccc([C@@H](C(=O)N2CCC(c3ccccc3)CC2)C2CCOCC2)cc1 [Example 45]
ED50 non-HDL cholesterol lowering effect [1]: 0.41 mg/kg
Lowering rate TG ([2]; dose 3 mg/kg): 92%
Lowering rate non-HDL ([2]; dose 3 mg/kg): 86%
IC50 ([3]; 18 hours incubation): 28 nM

Cc1nc2c(c(C)c1CCC(=O)O)c1ccc(F)cc1n2Cc1ccc([C@@H](C(=O)NCc2ccccc2)C2CCOCC2)cc1 [Example 24]
ED50 non-HDL cholesterol lowering effect [1]: 0.040 mg/kg
Lowering rate TG ([2]; dose 3 mg/kg): 95%
Lowering rate non-HDL ([2]; dose 3 mg/kg): 96%
ED50 TC (total cholesterol secretion lowering effect) [4]: 0.21 mg/kg
ED50 TG (triglyceride secretion lowering effect) [4]: 0.22 mg/kg

Cc1nc2c(c(C)c1CCC(=O)O)c1ccccc1n2Cc1ccc([C@@H](C(=O)N2CC=CCC2)C2CCOCC2)cc1 [Example 40]
ED50 non-HDL cholesterol lowering effect [1]: <0.1 mg/kg
Lowering rate TG ([2]; dose 3 mg/kg): 81%
Lowering rate non-HDL ([2]; dose 3 mg/kg): 74%
IC50 ([3]; 18 hours incubation): 12 nM
ED50 TC (total cholesterol secretion lowering effect) [4]: 0.47 mg/kg
ED50 TG (triglyceride secretion lowering effect) [4]: 0.28 mg/kg
